Patent US12485140B2, “Transmission prevention of viruses with application of antiseptic composition” (Solventum Intellectual Properties Company, priority 2019, dated 2025)

Tests used:
Vero 76 cells = conditions: African green monkey
SARS-CoV-2 virus = experiment: In vitro viricidal assay against SARS-CoV-2 (CCID50 end-point titer on Vero 76 cells); conditions: 22 ± 2° C.; for Log Reduction Value (LRV): compared to the virus control; for Virus Titer: mean of 3 replicates

For CCO [CE19, Ethanol], the “dilutions of the neutralized sample showing toxicity toward Vero 76 cells” value (Vero 76 cells) was 1/10 dilution, the “Log Reduction Value (LRV)” value (SARS-CoV-2 virus; incubation time 0.5 min) was 2.4 and the “Virus Titer” value (SARS-CoV-2 virus; incubation time 0.5 min) was <1.7 Log10 CCID50 of virus per mL. The “Log Reduction Value (LRV)” value (SARS-CoV-2 virus; incubation time 1 min) was 2.1, the “Virus Titer” value (SARS-CoV-2 virus; incubation time 1 min) was <1.7 Log10 CCID50 of virus per mL and the “Log Reduction Value (LRV)” value (SARS-CoV-2 virus; incubation time 2 min) was 2.3. The “Virus Titer” value (SARS-CoV-2 virus; incubation time 2 min) was <1.7 Log10 CCID50 of virus per mL.
